In the assay the test system is HCV 1b_Huh-Luc/Neo-ET cell line persistently expressing a bicistronic genotype 1b replicon in Huh 7 cells. The assay is described as follows: HCV replicon assay (luciferase readout). The format is cell-based. To be noted: Hepatitis C virus, Huh-7, 72 h, read-out: Inhibition of HCV genotype 1b. The method, boiled down: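 EC50, determined repeatedly, comes from a four-parameter logistic fit of luciferase signal as percent of untreated control. Readout follows 72 h compound exposure, in triplicate, of the HCV 1b_Huh-Luc/Neo-ET replicon line.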
For orientation: In antiviral work, replicon cells carry a viral genome segment that copies itself.

On to `COC(=O)N[C@@H](C(=O)N1CCC[C@H]1c1ncc(C#Cc2ccc(C#Cc3cnc([C@@H]4CCCN4C(=O)[C@@H](c4ccccc4)N(C)C)[nH]3)cc2)[nH]1)c1ccccc1` [Compound 314], for which the EC50 was below 1 nM. As for `COC(=O)N[C@@H](C(=O)N1CCC[C@H]1c1ncc(-c2ccc(C#Cc3ccc(-c4cnc([C@@H]5CCCN5C(=O)Nc5ccccc5)[nH]4)cc3)cc2)[nH]1)c1ccccc1` [Compound 196], the EC50 lay in the range of 1 to 9.9 nM. On to `COC(=O)N[C@H](C(=O)N1CCC[C@H]1c1ncc(-c2ccc(C#Cc3ccc(-c4cnc([C@@H]5CCCN5C(=O)[C@H](NC(=O)N(CCO)CCO)c5ccccc5)[nH]4)cc3)cc2)[nH]1)C(C)C` [Compound 973], for which the EC50 was below 1 nM.

Take `CN1CCC[C@@H]1C(=O)N[C@@H](C(=O)N1CCC[C@H]1c1ncc(-c2ccc(C#Cc3ccc(-c4cnc([C@@H]5CCCN5C(=O)[C@H](NC(=O)C5CC5)c5ccccc5)[nH]4)cc3)cc2)[nH]1)c1ccccc1` [Compound 216]: the EC50 is below 1 nM.

On to `COCCOc1c(C#Cc2ccc3nc([C@@H]4CCCN4C(=O)[C@@H](NC(=O)OC)C(C)C)[nH]c3c2)ccc(-c2cnc([C@@H]3CCCN3C(=O)[C@H](NC(=O)OC)C(C)C)[nH]2)c1OCCOC` [Compound 1066], for which the EC50 was below 1 nM.

On to `O=S(=O)(c1ccccc1)N1CCC[C@H]1c1ncc(-c2ccc(C#Cc3ccc4nc([C@@H]5CCCN5S(=O)(=O)c5ccccc5)[nH]c4c3)cc2)[nH]1` [Compound 1038], for which the EC50 was above 1000 nM.

`COC(=O)N[C@H](C(=O)N1CCC[C@H]1c1nc(-c2cnc3cc(C#Cc4ccc(-c5cnc([C@@H]6CCCN6C(=O)[C@@H](NC(=O)OC)c6ccccc6)[nH]5)cc4)ccc3c2)c[nH]1)c1ccccc1` [Compound 1089]: the EC50 fell in the range of 1 to 9.9 nM. Then `CNC(=O)N[C@@H](C(=O)N1CCC[C@H]1c1ncc(C#Cc2ccc(C#Cc3cnc([C@@H]4CCCN4C(=O)[C@H](NC(=O)NC)c4ccccc4)[nH]3)cc2)[nH]1)c1ccccc1` [Compound 307], with below 1 nM; and `C[C@@H]1OC(=O)N[C@H]1C(=O)N1CCC[C@H]1c1ncc(-c2ccc(C#Cc3ccc(-c4cnc([C@@H]5CCCN5C(=O)[C@@H]5NC(=O)O[C@H]5C)[nH]4)cc3)cc2)[nH]1` [Compound 1000], with 10 to 999 nM; and `COC(=O)N[C@H](C(=O)N1CCC[C@H]1c1ncc(-c2ccc(C#Cc3ccc(-c4cnc([C@@H]5CCCN5C(=O)[C@@H](NC5CCOCC5)C(C)C)[nH]4)cc3)cc2)[nH]1)C(C)C` [Compound 1001], with 1 to 9.9 nM. For the molecule `COC(=O)N[C@@H](C(=O)N1CCC[C@H]1c1ncc(-c2ccc(C#Cc3ccc(-c4cnc([C@@H]5CCCN5C(=O)[C@H]5CCCO5)[nH]4)cc3)cc2)[nH]1)c1ccccc1` [Compound 177], the EC50 is below 1 nM. Then `COC(=O)N[C@@H](CCC(=O)O)C(=O)N1CCC[C@H]1c1ncc(-c2ccc(C#Cc3ccc4nc([C@@H]5CCCN5C(=O)[C@H](CCC(=O)O)NC(=O)OC)[nH]c4c3)cc2)[nH]1` [Compound 1047], with 10 to 999 nM. Take `CC(C)[C@H](NC(=O)N1CCN(C)CC1)C(=O)N1CCC[C@H]1c1ncc(-c2ccc(C#Cc3ccc(-c4cnc([C@@H]5CCCN5C(=O)[C@@H](NC(=O)N5CCN(C)CC5)C(C)C)[nH]4)cc3)cc2)[nH]1` [Compound 287]: the EC50 was above 1000 nM. Then `CC(C)[C@@H](NC(=O)OC(C)(C)C)C(=O)N1CCC[C@H]1c1ncc(C#Cc2ccc(-c3cnc([C@@H]4CCCN4C(=O)[C@H](NC(=O)OC(C)(C)C)C(C)C)[nH]3)cc2)[nH]1` [Compound 105], with 10 to 999 nM.

Take `COC(=O)N[C@H](C(=O)N1CCC[C@H]1c1ncc(-c2ccc(C#Cc3ccc(-c4cnc([C@@H]5CCCN5C(=O)[C@@H](NC(=O)N5CCN(CCO)CC5)c5ccccc5)[nH]4)cc3)cc2)[nH]1)C(C)C` [Compound 990]: the EC50 lay within 1 to 9.9 nM.

With `CC(C)(C)OC(=O)N[C@@H](C(=O)N1CCC[C@H]1C(=O)Nc1ccc(C#Cc2ccc(-c3cnc([C@@H]4CCCN4C(=O)[C@H](NC(=O)OC(C)(C)C)c4ccccc4)[nH]3)cc2)cc1)c1ccccc1` [Compound 163], the EC50 was below 1 nM. Then `COC(=O)N[C@@H](C(=O)N1CCC[C@H]1c1ncc(-c2ccc(C#Cc3ccc(-c4cnc([C@@H]5CCCN5C(=O)[C@H](NC(=O)N5CC[C@H](O)C5)c5ccccc5)[nH]4)cc3)cc2)[nH]1)c1ccccc1` [Compound 269], with below 1 nM. On to `COC(=O)N[C@@H](C(=O)N1CCC[C@H]1c1ncc(-c2ccc(C#Cc3ccc(-c4cnc([C@@H]5CCCN5C(=O)[C@H](NC(=O)N5CC[C@H](F)C5)c5ccccc5)[nH]4)cc3)cc2)[nH]1)c1ccccc1` [Compound 270], for which the EC50 is below 1 nM. Then `C[C@@H](NC(=O)OC(C)(C)C)C(=O)N1CCC[C@H]1c1ncc(C#Cc2ccc(-c3cnc([C@@H]4CCCN4C(=O)[C@@H](C)NC(=O)OC(C)(C)C)[nH]3)cc2)[nH]1` [Compound 104], with 1 to 9.9 nM. Take `COC(=O)N[C@@H](C(=O)N1CCC[C@H]1c1ncc(-c2ccc(C#Cc3ccc(-c4cnc([C@@H]5CCCN5C(=O)[C@H](NC(=O)OC)c5ccccc5)[nH]4)cc3)cc2)[nH]1)c1ccccc1` [Compound 156]: the EC50 was below 1 nM. Turning to `CC(C)(C)OC(=O)N1CCC[C@H]1c1ncc(C#Cc2ccc(-c3cnc([C@@H]4CCCN4C(=O)OC(C)(C)C)[nH]3)cc2)[nH]1` [Compound 101], the EC50 lay within 10 to 999 nM. With `CN(C)[C@@H](C(=O)N1CCC[C@H]1c1ncc(-c2ccc(C#Cc3ccc(-c4cnc([C@@H]5CCCN5C(=O)[C@H](NS(C)(=O)=O)c5ccccc5)[nH]4)cc3)cc2)[nH]1)c1ccccc1` [Compound 228], the EC50 is below 1 nM. Take `COC(=O)N[C@@H](C(=O)N1CCC[C@H]1c1ncc(-c2ccc(C#Cc3ccc(-c4nnc([C@@H]5CCCN5C(=O)[C@H](NC(=O)OC)c5ccccc5)[nH]4)cc3)cc2)[nH]1)c1ccccc1` [Compound 247]: the EC50 was below 1 nM. Then `COC(=O)N[C@@H](C(=O)N1CCC[C@H]1c1ncc(-c2ccc(C#Cc3ccc(-c4cnc([C@@H]5CCCN5C(=O)[C@H](C(C)C)N5CCOC5=O)[nH]4)cc3)cc2)[nH]1)c1ccccc1` [Compound 1005], with below 1 nM.

Take `COC(=O)N[C@@H](C(=O)N1CCC[C@H]1c1ncc(-c2ccc(C#Cc3ccc(-c4cnc([C@@H]5CCCN5C(=O)[C@@H](c5ccccc5)N(C)C)[nH]4)cc3)cc2)[nH]1)c1ccccc1` [Compound 174]: the EC50 was below 1 nM.

As to `COC(=O)N[C@@H](C(=O)N1CCC[C@H]1c1ncc(-c2ccc(C#Cc3ccc(-c4cnc([C@@H]5CCCN5C(=O)[C@H](NC(=O)[C@@H]5CCCN5)c5ccccc5)[nH]4)cc3)cc2)[nH]1)c1ccccc1` [Compound 206], the EC50 is below 1 nM.

For `COC(=O)N[C@@H](Cc1cnc[nH]1)C(=O)N1CCC[C@H]1c1ncc(-c2ccc(C#Cc3ccc4nc([C@@H]5CCCN5C(=O)[C@H](Cc5cnc[nH]5)NC(=O)OC)[nH]c4c3)cc2)[nH]1` [Compound 1048], the EC50 fell in the range of 1 to 9.9 nM.

As for `CC[C@H](NC(=O)OC)C(=O)N1CCC[C@H]1c1ncc(-c2ccc(C#Cc3ccc(-c4cnc([C@@H]5CCCN5C(=O)[C@H](CC)NC(=O)OC)[nH]4)cc3)cc2)[nH]1` [Compound 960], the EC50 is below 1 nM. Turning to `CC(C)(C)OC(=O)N[C@@H](C(=O)N1CCC[C@H]1c1cc(-c2ccc(C#Cc3ccc(-c4cnc([C@@H]5CCCN5C(=O)[C@H](NC(=O)OC(C)(C)C)c5ccccc5)[nH]4)cc3)cc2)n[nH]1)c1ccccc1` [Compound 210], the EC50 is below 1 nM.

These data come from patent publication US8865756B2, “Inhibitors of HCV NS5A” (Presidio Pharmaceuticals, Inc., priority 2008, dated 2014).
